Assay results: patent US20230265098A1, “ALKYNE QUINAZOLINE DERIVATIVES AS INHIBITORS OF ERBB2” (EnLiven Therapeutics, Inc., priority 2020, published 2023)
pIC50: −log10 of the molar value.

How the values were obtained:
A431 cells = test: Cell viability assay (CellTiter Glo); format: cell-based; conditions: Homo sapiens, A-431; 72 hours; 1500 cells per well, 384-well; DMEM + 10% FBS
Procedure: (§1) Cells were treated with compounds, and cell viability was measured as a metric of kinase inhibition.
(§2) The Ba/F3 cell line is IL-3-dependent mouse cell line derived from the C3H mouse strain. Ba/F3 cell lines were engineered to express human ERBB2 or EGFR kinases, rendering the cells IL-3 independent. The lines were generated via retroviral transduction utilizing a Moloney murine leukemia virus (MMLV) promoter, and constructs are stably integrated into the cell genome.
(§3) Similarly, Ba/F3 cell lines engineered to express EGFR, ERBB2, or ERBB2 mutants were grown, harvested, counted and seeded at 3000 cells per well in 96-well plates for the data sets shown in Tables B3-B4, and seeded at 300 cells per well in 384-well plates for the data set shown in Table B5. A subset of wells contained media only (low control, “LC”).
(§4) Table B2 provides the growth media and number of cells seeded per well for the each cell line.
(§5) Compounds were dissolved in DMSO and serially diluted. Serially-diluted compound or a DMSO only control (high control, “HC”) was added to the plated cells in each well. […] The final proportion of DMSO never exceeded 0.1%.
(§6) Plates were placed in a 37° C., 5% CO2 incubator for 72 hours. Plates were then removed from the incubator and equilibrated for 15 minutes at room temperature. 40 IA of CellTiter Glo reagent (Promega) was added to measure the relative level of metabolically active cells by quantifying intracellular ATP concentrations. Plates were incubated for 30 minutes at room temperature, and luminescence was measured. Percent viability was normalized to a vehicle control only using the following formula: % viability=100×(LumSample−LumLC) (LumHC−LumLC). Graphical curves were fitted using a nonlinear regression model with a sigmoidal dose response.

BT-474 cells = test: Cell viability assay (CellTiter Glo); format: cell-based; conditions: Homo sapiens, 72 hours, 2000 cells per well, 384-well, DMEM + 10% FBS
Procedure: as §1, §2, §3, §4, §5, §6

MDA-MB-175VII cells = test: Cell viability assay (CellTiter Glo); format: cell-based; conditions: Homo sapiens, 72 hours, 2000 cells per well, 384-well, RPMI + 10% FBS
Procedure: as §1, §2, §3, §4, §5, §6

[1] = biological target: T1, Ba/F3 ERBB2 A775_G776insYVMA (Homo sapiens, UniProt P04626, DUP772-775, cells depend on it); test: Cell viability assay (CellTiter Glo); format: cell-based, mouse; conditions: 72 hours; 3000 cells per well, 96-well plates (Tables B3-B4); read-out: Cell viability IC50, nM, Ba/F3 ERBB2 A775_G776insYVMA
T1 construct: Ba/F3 cell lines were engineered to express human ERBB2 or EGFR kinases, rendering the cells IL-3 independent
T1 sequence (P04626 with tags, fused parts or gaps DUP772-775): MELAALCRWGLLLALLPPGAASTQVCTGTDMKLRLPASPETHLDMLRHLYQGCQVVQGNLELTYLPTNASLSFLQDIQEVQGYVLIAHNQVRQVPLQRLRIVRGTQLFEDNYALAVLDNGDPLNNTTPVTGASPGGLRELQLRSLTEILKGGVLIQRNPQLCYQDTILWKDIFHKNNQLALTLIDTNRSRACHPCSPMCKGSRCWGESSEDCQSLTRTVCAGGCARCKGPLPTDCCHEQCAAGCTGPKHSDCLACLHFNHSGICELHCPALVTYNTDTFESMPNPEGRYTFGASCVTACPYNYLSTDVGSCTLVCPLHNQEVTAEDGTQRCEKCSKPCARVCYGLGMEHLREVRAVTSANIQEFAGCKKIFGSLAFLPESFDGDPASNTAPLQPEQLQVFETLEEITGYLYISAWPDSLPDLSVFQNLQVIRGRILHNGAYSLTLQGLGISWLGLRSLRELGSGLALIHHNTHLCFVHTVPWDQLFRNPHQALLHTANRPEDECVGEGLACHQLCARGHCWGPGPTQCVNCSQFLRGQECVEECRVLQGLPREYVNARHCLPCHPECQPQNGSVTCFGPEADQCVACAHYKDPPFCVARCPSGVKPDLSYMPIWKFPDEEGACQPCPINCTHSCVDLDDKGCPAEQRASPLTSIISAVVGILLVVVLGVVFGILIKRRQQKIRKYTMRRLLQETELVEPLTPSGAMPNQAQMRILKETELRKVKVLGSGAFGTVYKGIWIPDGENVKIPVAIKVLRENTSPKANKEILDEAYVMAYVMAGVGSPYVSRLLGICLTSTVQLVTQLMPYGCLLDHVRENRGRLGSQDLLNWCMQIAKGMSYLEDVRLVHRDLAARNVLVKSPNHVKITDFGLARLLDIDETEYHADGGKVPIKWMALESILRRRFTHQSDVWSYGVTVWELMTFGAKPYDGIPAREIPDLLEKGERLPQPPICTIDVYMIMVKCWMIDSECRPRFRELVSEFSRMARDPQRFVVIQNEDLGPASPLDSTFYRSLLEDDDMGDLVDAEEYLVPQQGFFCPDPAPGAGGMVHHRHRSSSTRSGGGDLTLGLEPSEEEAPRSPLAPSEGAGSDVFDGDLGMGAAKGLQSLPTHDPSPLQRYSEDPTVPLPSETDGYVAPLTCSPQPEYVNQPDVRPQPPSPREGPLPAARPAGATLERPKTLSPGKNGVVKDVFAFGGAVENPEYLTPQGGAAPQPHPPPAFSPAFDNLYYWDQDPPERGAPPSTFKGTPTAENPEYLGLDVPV
Method in brief: (§7)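 Murine Ba/F3 cells made IL-3-independent by retroviral human EGFR or ERBB2 were seeded at 3000 or 300 cells per well and exposed to serially diluted compound (DMSO ≤0.1%) for 72 hours at 37° C, 5% CO2. CellTiter Glo luminescence was normalised to DMSO and media-only controls and fitted to a sigmoidal dose-response.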

Ba/F3 ERBB2 wt = biological target: T2, Ba/F3 ERBB2 wt (Homo sapiens, UniProt P04626); test: Cell viability assay (CellTiter Glo); format: cell-based, mouse; conditions: 72 hours; 3000 cells per well, 96-well plates; read-out: Cell viability IC50, nM, Ba/F3 ERBB2 wt
T2 construct: Ba/F3 cell lines were engineered to express human ERBB2 or EGFR kinases, rendering the cells IL-3 independent
T2 sequence (P04626 whole entry, change not shown): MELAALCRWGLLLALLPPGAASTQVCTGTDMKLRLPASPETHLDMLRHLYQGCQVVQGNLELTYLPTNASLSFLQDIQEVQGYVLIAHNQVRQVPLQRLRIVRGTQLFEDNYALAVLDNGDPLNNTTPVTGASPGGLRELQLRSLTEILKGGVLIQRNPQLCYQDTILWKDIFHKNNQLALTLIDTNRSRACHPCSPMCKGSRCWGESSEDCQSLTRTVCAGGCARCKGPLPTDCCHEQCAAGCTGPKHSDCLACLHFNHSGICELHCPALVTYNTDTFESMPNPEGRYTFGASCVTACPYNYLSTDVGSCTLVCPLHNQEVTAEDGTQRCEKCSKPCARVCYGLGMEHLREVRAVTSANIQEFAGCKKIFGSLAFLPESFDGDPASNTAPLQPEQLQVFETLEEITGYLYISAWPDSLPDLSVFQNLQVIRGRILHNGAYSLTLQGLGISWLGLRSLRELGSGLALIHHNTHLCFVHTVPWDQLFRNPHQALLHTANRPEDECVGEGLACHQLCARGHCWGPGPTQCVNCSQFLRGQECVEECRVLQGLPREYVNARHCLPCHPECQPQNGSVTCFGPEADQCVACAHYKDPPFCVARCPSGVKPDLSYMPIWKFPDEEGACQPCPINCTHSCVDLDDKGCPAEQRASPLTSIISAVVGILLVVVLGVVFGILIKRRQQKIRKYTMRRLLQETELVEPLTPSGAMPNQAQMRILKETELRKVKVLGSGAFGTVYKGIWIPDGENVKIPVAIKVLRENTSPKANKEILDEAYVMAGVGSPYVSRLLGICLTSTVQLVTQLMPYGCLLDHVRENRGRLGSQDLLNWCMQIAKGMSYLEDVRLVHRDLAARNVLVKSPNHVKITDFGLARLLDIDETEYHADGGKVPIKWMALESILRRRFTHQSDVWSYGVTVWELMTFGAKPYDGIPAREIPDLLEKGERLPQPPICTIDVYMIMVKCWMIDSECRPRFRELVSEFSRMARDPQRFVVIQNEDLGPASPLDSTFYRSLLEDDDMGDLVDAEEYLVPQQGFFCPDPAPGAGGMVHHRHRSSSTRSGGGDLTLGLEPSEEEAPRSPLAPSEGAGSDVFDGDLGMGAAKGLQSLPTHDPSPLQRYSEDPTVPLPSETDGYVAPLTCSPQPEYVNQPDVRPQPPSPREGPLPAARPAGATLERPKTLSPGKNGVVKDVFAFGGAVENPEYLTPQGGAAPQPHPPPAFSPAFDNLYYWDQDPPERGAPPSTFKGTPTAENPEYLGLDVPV
Method in brief: as §7

Ba/F3 ERBB2-G776VC = biological target: T3, Ba/F3 ERBB2-G776VC (Homo sapiens, UniProt P04626, DELINS776-776VC, cells depend on it); test: Cell viability assay (CellTiter Glo); format: cell-based, mouse; conditions: 72 hours; 3000 cells per well, 96-well plates; read-out: Cell viability IC50, nM, Ba/F3 ERBB2-G776VC
T3 construct: Ba/F3 cell lines were engineered to express human ERBB2 or EGFR kinases, rendering the cells IL-3 independent
Method in brief: as §7

Ba/F3 ERBB2-L755S = biological target: T4, Ba/F3 ERBB2-L755S (Homo sapiens, UniProt P04626, L755S, cells depend on it); test: Cell viability assay (CellTiter Glo); format: cell-based, mouse; conditions: 72 hours; 3000 cells per well, 96-well plates; read-out: Cell viability IC50, nM, Ba/F3 ERBB2-L755S
T4 construct: Ba/F3 cell lines were engineered to express human ERBB2 or EGFR kinases, rendering the cells IL-3 independent
T4 sequence (P04626 whole entry L755S): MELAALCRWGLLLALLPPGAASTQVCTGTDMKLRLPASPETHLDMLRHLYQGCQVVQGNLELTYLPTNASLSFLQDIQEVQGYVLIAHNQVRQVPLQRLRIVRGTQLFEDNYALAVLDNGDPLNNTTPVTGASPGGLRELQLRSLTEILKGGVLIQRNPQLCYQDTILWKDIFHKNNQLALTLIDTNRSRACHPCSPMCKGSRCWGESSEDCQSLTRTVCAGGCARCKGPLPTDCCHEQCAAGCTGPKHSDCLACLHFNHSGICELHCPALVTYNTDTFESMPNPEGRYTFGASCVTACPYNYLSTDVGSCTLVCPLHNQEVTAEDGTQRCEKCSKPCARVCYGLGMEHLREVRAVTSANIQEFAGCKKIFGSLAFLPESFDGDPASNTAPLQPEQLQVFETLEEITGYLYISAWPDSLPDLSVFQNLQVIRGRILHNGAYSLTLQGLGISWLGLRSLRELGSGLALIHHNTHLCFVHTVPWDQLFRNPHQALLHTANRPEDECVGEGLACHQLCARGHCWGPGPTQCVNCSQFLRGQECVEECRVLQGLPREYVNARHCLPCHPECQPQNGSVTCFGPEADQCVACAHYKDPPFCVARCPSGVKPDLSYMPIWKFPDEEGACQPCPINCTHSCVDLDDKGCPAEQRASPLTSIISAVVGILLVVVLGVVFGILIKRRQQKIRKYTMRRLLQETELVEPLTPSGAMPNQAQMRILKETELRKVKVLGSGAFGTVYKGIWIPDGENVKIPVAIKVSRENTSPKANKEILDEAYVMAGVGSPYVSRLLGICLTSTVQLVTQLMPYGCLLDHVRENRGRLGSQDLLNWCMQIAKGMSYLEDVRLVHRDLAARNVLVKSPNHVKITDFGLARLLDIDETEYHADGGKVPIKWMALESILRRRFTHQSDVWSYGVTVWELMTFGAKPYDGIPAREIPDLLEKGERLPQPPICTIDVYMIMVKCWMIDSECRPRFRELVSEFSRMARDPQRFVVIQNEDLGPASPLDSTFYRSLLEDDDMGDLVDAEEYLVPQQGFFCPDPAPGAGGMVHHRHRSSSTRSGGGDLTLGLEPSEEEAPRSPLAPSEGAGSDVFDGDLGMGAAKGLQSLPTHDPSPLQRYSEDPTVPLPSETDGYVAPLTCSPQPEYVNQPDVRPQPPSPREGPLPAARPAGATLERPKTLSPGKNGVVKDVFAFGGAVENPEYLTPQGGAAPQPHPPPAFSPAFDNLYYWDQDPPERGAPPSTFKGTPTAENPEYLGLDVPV
Method in brief: as §7

Ba/F3 ERBB2-L869R = biological target: T5, Ba/F3 ERBB2-L869R (Homo sapiens, UniProt P04626, L869R, cells depend on it); test: Cell viability assay (CellTiter Glo); format: cell-based, mouse; conditions: 72 hours; 3000 cells per well, 96-well plates; read-out: Cell viability IC50, nM, Ba/F3 ERBB2-L869R
T5 construct: Ba/F3 cell lines were engineered to express human ERBB2 or EGFR kinases, rendering the cells IL-3 independent
Method in brief: as §7

Ba/F3 ERBB2-T798M = biological target: T6, Ba/F3 ERBB2-T798M (Homo sapiens, UniProt P04626, T798M, cells depend on it); test: Cell viability assay (CellTiter Glo); format: cell-based, mouse; conditions: 72 hours; 3000 cells per well, 96-well plates; read-out: Cell viability IC50, nM, Ba/F3 ERBB2-T798M
T6 construct: Ba/F3 cell lines were engineered to express human ERBB2 or EGFR kinases, rendering the cells IL-3 independent
Method in brief: as §7

Ba/F3 ERBB2-V777L = biological target: T7, Ba/F3 ERBB2-V777L (Homo sapiens, UniProt P04626, V777L, cells depend on it); test: Cell viability assay (CellTiter Glo); format: cell-based, mouse; conditions: 72 hours; 3000 cells per well, 96-well plates; read-out: Cell viability IC50, nM, Ba/F3 ERBB2-V777L
T7 construct: Ba/F3 cell lines were engineered to express human ERBB2 or EGFR kinases, rendering the cells IL-3 independent
T7 sequence (P04626 whole entry V777L): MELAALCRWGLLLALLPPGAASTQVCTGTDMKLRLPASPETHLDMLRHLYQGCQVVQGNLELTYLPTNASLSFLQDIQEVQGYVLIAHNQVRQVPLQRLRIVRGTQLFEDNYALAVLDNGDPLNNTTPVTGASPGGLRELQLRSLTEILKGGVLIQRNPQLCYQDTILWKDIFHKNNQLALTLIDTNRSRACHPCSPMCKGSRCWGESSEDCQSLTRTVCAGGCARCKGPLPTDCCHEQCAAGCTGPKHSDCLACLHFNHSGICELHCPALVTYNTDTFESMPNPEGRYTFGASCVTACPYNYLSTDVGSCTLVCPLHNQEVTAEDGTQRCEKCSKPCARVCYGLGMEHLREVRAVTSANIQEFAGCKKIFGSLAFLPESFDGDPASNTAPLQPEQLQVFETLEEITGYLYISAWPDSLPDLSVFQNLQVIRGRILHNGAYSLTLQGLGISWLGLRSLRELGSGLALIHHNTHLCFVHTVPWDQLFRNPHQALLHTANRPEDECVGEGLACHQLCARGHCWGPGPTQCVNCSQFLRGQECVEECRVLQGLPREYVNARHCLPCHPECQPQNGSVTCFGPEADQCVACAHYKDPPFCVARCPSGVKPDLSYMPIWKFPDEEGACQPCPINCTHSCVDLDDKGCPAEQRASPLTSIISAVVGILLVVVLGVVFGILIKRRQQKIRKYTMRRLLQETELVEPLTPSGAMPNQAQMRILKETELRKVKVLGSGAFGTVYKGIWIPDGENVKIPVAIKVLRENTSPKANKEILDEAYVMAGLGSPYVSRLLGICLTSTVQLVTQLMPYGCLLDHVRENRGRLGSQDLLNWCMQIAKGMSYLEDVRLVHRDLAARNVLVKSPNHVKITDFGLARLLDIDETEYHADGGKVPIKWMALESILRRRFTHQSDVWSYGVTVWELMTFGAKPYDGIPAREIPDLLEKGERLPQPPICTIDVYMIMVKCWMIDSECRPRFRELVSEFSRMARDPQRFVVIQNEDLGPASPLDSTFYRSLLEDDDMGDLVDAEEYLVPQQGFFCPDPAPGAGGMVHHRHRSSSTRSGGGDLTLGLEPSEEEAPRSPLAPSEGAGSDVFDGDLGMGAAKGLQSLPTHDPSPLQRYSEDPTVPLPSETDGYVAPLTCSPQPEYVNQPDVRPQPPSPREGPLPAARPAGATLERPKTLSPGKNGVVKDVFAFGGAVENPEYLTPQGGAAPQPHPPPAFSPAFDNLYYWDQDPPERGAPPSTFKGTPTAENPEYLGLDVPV
Method in brief: as §7

[2] = biological target: T8, Ba/F3 ERBB2-V777_G778insGC (Homo sapiens, UniProt P04626, INS778CG, cells depend on it); test: Cell viability assay (CellTiter Glo); format: cell-based, mouse; conditions: 72 hours; 3000 cells per well, 96-well plates; read-out: Cell viability IC50, nM, Ba/F3 ERBB2-V777_G778insGC
T8 construct: Ba/F3 cell lines were engineered to express human ERBB2 or EGFR kinases, rendering the cells IL-3 independent
Method in brief: as §7

[3] = biological target: T9, Ba/F3 ERBB2-P780_Y781insGSP (Homo sapiens, UniProt P04626, DUP778-780, cells depend on it); test: Cell viability assay (CellTiter Glo); format: cell-based, mouse; conditions: 72 hours; 3000 cells per well, 96-well plates; read-out: Cell viability IC50, nM, Ba/F3 ERBB2-P780_Y781insGSP
T9 construct: Ba/F3 cell lines were engineered to express human ERBB2 or EGFR kinases, rendering the cells IL-3 independent
Procedure: as §1, §2, §3, §4, §5
as §6, with “Percent viability was normalized to a vehicle control only using the following formula: % viability=100×(LumSample−LumLC) (LumHC−LumLC).” left out

[4] = biological target: T10, phosphorylated ERBB2 (pERBB2) (Homo sapiens, UniProt P04626); test: Detection of phosphorylated ERBB2 (pERBB2) by ELISA in BT-474 cells; format: cell-based; conditions: four hours incubation with compound, OD 450 nm
T10 construct: endogenous in cells; host or cells: BT-474
Method in brief: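 BT-474 cells were treated for 4 h at 37 °C with four-fold compound dilutions from 10 μM to 0.01 nM final, then lysed. Phospho-ERBB2 in the lysates was measured by ELISA with TMB read-out at 450 nm. Relative activity was normalised between cell-free wells and 0.1% DMSO-treated cells.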

SMILES: CC#CC(=O)Nc1ccc2ncnc(Nc3ccc(Oc4cnc(C)cn4)cc3)c2c1 [Compound 10, N-[4-([4-[(5-methylpyrazin-2-yl)oxy]phenyl]amino)quinazolin-6-yl]but-2-ynamide]
- IC50 (A431 cells): 1080 nM
- IC50 (BT-474 cells): 35.5 nM
- IC50 (MDA-MB-175VII cells): 232 nM
- GI50 [1]: 49 nM
- GI50 (Ba/F3 ERBB2 wt): 13.1 nM
- GI50 (Ba/F3 ERBB2-G776VC): 81 nM
- GI50 (Ba/F3 ERBB2-L755S): 81 nM
- GI50 (Ba/F3 ERBB2-L869R): 15 nM
- GI50 (Ba/F3 ERBB2-T798M): 220 nM
- GI50 (Ba/F3 ERBB2-V777L): 7.3 nM
- GI50 [2]: 9.3 nM
- GI50 [3]: 16 nM
- pIC50 [4]: 7.13
